The experiment concerns the target M2TMS31N (Influenza A virus, UniProt P0DOF5, S31N). The format is binding, influenza A (A/Udorn/307/72, S31N mutant). The note with it: for binding to M2TMS31N according to ITC (in words): pH 8.

For `CCCC1(N)C2CC3CC(C2)CC1C3` (centres unmarked) [Compound 5], the “binding to M2TMS31N according to ITC (in words)” value is listed as “bind weakly”.

For `C1CNC2(C1)C1CC3CC(C1)CC2C3` (centres unmarked) [Compound 6], the ΔG was -6.68 ± 0.296 kcal/mol and the “binding to M2TMS31N according to ITC (in words)” value is recorded as “bind weakly”.

`NC1(C23CC4CC(CC(C4)C2)C3)CCCC1` [Compound 9] came in with a ΔG of -6.745 ± 0.229 kcal/mol.

For `NC1(C23CC4CC(CC(C4)C2)C3)CCCCC1` [Compound 10, 1-(1-Adamantyl)cyclohexanamine], the ΔG was -7.029 ± 0.308 kcal/mol.

The values above are taken from publication PMC9308172 (Journal of medicinal chemistry, 2017).
